Data on 24 molecules can be found in patent US7342030B2, “Indole derivatives” (Hoffmann-La Roche Inc., priority 2004, dated 2008).

Structures are written as SMILES.

The experiment relates to HEK293 cells. Nature of the experiment: Viability Assay of HEK293 Cells (CellTiter-Glo Luminescent Cell Viability Assay). Format: cell-based. Conditions: Homo sapiens, 7 days (168 h) incubation, compounds 3 μM to 0.00015 μM, ATP luminescence. On the procedure:
Viability Assay of HEK293 Cells
A viability assay was performed using the CellTiter-Glo® Luminescent Cell Viability Assay (see Promega Corporation's Technical Bulletin No. 288, pp. 1-11 [revised 2/04] which is hereby incorporated by reference in its entirety). This assay is a homogeneous method of determining the number of viable cells in culture based on quantitation of the ATP present, an indicator of metabolically active cells. The assay is designed for use with multiwell formats, making it ideal for automated high-throughput screening (HTS), cell proliferation and cytotoxicity assays. The homogeneous assay procedure involves adding a single reagent (containing luciferase, luciferan substrate, and buffer) directly to cells cultured in serum-supplemented medium. Cell washing, removal of medium and multiple pipetting steps are not required. The system detects as few as 15 cells/well in a 384-well format in 10 minutes after adding reagent and mixing.
The homogeneous “add-mix-measure” format results in cell lysis and generation of a luminescent signal proportional to the amount of ATP present. The amount of ATP is directly proportional to the number of cells present in culture. The above-referenced assay generates a “glow-type” luminescent signal, produced by the luciferase reaction, which has a half-life generally greater than five hours, depending on cell type and medium used. The extended half-life eliminates the need to use reagent injectors and provides flexibility for continuous or batch mode processing of multiple plates. The unique homogeneous format avoids errors that may be introduced by other ATP measurement methods that require multiple steps.
HEK293 cells (human embryonic kidney cell line transformed by Adenovirus 5 fragments, ATCC-No. CRL 1573) were cultivated in Dulbecco's Modified Eagle Medium (D-MEM) (1×) liquid (high glucose) (which includes L-Alanyl-L-Glutamine [a stabilized a form of L-Glutamine], 4500 mg/L glucose, and 110 mg/L sodium pyruvate) from Invitrogen Coropration (Invitrogen Catalog Number 31966-021 [now 10569-010] which is hereby incorporated by reference), 5% Fetal Calf Serum (FCS, Sigma Cat-No. F4135 (FBS)), 100 Units/ml penicillin/100 μg/ml streptomycin (=Pen/Strep from Invitrogen Cat. No. 15140). For the assay the cells were seeded in 384 well plates, 5000 cells per well, in the same medium. The next day the test compounds were added in various concentrations ranging from 3 μM to 0.00015 μM (10 concentrations, 1:3 diluted).
After 7 days the above viability assay was performed in accordance with the following steps: • Step 1: The cell-plate was equilibrated to room temperature for approximately 30 minutes and than the assay reagent was added. • Step 2: The contents were carefully mixed for 15 minutes to induce cell lysis. • Step 3: After 45 minutes the luminescent signal was measured in Victor 2, (a scanning multiwell spectrophotometer, Wallac). Details:
Medium: Dulbecco's Modified Eagle Medium (D-MEM) (1×) liquid (high glucose) (which includes L-Alanyl-L-Glutamine [a stabilized a form/source of L-Glutamine], 4500 mg/L glucose, and 110 mg/L sodium pyruvate) from Invitrogen Coropration (Invitrogen Catalog Number 31966-021 [now 10569-010] which is hereby incorporated by reference in its entirety), 5% Fetal Calf Serum (FCS, Sigma Cat-No. F4135 [FBS] which is hereby incorporated by reference in its entirety), Pen/Strep contaning 100 Units/ml penicillin/100 μg/ml streptomycin (Invitrogen Catalog Number 15140, which is hereby incorporated by reference in its entirety). —HEK293 (ATCC-No. CRL 1573): 5000 cells in 60 μl per well of 384 well plate (Greiner 781098, white plates) • Incubate 24 h at 37° C., 5% CO2
2. Day: Induction (Substance Testing): […]
The molecule `Clc1ccc2[nH]c(-c3nc(COc4ccc(CCCCn5ccnn5)cc4)co3)cc2c1` [Example 2, 5-Chloro-2-{4-[4-(4-[1,2,3]triazol-1-yl-butyl)-phenoxymethyl]-oxazol-2-yl}-1H-indole] had a half-inhibitory concentration (IC50) of 0.0001 to 0.05 µM. For `Clc1ccc2[nH]c(-c3nc(COc4ccc(COCCn5ccnn5)cc4)cs3)cc2c1` [Example 18, 5-Chloro-2-{4-[4-(2-[1,2,3]triazol-1-yl-ethoxymethyl)-phenoxymethyl]-thiazol-2-yl}-1H-indole] the value was 0.05 to 0.5 µM; for `Fc1ccc2[nH]c(-c3nc(CNc4ccc(CCCCn5ccnn5)cc4)co3)cc2c1` [Example 24, [2-(5-Fluoro-1H-indol-2-yl)-oxazol-4-ylmethyl]-[4-(4-[1,2,3]triazol-1-yl-butyl)-phenyl]-amine], 0.037 µM; for `Fc1ccc2[nH]c(-c3nc(CNc4ccc(CCCCn5ccnn5)nc4)co3)cc2c1` [Example 38, [2-(5-Fluoro-1H-indol-2-yl)-oxazol-4-ylmethyl]-[6-(4-[1,2,3]triazol-1-yl-butyl)-pyridin-3-yl]-amine], 0.05 to 0.5 µM. With `Clc1ccc2cc(-c3nc(COc4cccc(CCCn5ccnn5)c4)co3)[nH]c2c1` [Example 16, 6-Chloro-2-{4-[3-(3-[1,2,3]triazol-1-yl-propyl)-phenoxymethyl]-oxazol-2-yl}-1H-indole] the figure was 0.0001 to 0.05 µM; with `Fc1ccc2cc(-c3nc(COc4ccc(CCCCn5ccnn5)cc4)co3)[nH]c2c1` [Example 4, 6-Fluoro-2-{4-[4-(4-[1,2,3]triazol-1-yl-butyl)-phenoxymethyl]-oxazol-2-yl}-1H-indole], 0.0001 to 0.05 µM. On to `Cc1cc(NCc2coc(-c3cc4cc(Cl)ccc4[nH]3)n2)ccc1CCCCn1ccnn1` [Example 29, [2-(5-Chloro-1H-indol-2-yl)-oxazol-4-ylmethyl]-[3-methyl-4-(4-[1,2,3]triazol-1-yl-butyl)-phenyl]-amine], for which the IC50 is 0.0001 to 0.05 µM. For `Clc1ccc2[nH]c(-c3nc(COc4ccc(COCCn5ccnn5)cc4)co3)cc2c1` [Example 10, 5-Chloro-2-{4-[4-(2-[1,2,3]triazol-1-yl-ethoxymethyl)-phenoxymethyl]-oxazol-2-yl}-1H-indole] the value was 0.0001 to 0.05 µM.

In turn, `Fc1ccc2[nH]c(-c3nc(COc4ccc(CCCCn5ccnn5)cc4)co3)cc2c1` [Example 3, 5-Fluoro-2-{4-[4-(4-[1,2,3]triazol-1-yl-butyl)-phenoxymethyl]-oxazol-2-yl}-1H-indole] showed a 50% inhibitory concentration (IC50) of 0.0066 µM. For `Fc1ccc2[nH]c(-c3nc(CNc4ccc(CCCCn5ccnn5)c(F)c4)co3)cc2c1` [Example 32, [2-(5-Fluoro-1H-indol-2-yl)-oxazol-4-ylmethyl]-[3-fluoro-4-(4-[1,2,3]triazol-1-yl-butyl)-phenyl]-amine] the value was 0.0001 to 0.05 µM; for `Fc1ccc2[nH]c(-c3nc(COc4ccc(COCCn5ccnn5)cc4)co3)cc2c1` [Example 11, 5-Fluoro-2-{4-[4-(2-[1,2,3]triazol-1-yl-ethoxymethyl)-phenoxymethyl]-oxazol-2-yl}-1H-indole], 0.0001 to 0.05 µM; for `Clc1ccc2[nH]c(-c3nc(COc4ccc(CCCCn5ccnn5)cc4)cs3)cc2c1` [Example 17, 5-Chloro-2-{4-[4-(4-[1,2,3]triazol-1-yl-butyl)-phenoxymethyl]-thiazol-2-yl}-1H-indole], 0.0001 to 0.05 µM. For `O=S(=O)(Cc1coc(-c2cc3cc(F)ccc3[nH]2)n1)c1ccc(CCCCn2ccnn2)cc1` [Example 21, 5-Fluoro-2-{4-[4-(4-[1,2,3]triazol-1-yl-butyl)-benzenesulfonylmethyl]-oxazol-2-yl}-1H-indole] the value was 0.05 to 0.5 µM; for `Cc1cc(OCc2coc(-c3cc4cc(F)ccc4[nH]3)n2)ccc1CCCCn1ccnn1` [Example 7, 5-Fluoro-2-{4-[3-methyl-4-(4-[1,2,3]triazol-1-yl-butyl)-phenoxymethyl]-oxazol-2-yl}-1H-indole], 0.0001 to 0.05 µM; for `[O-][S+](CCn1ccnn1)Cc1ccc(OCc2coc(-c3cc4cc(F)ccc4[nH]3)n2)cc1` (stereo not drawn) [Example 13, 5-Fluoro-2-{4-[4-(2-[1,2,3]triazol-1-yl-ethanesulfinylmethyl)-phenoxymethyl]-oxazol-2-yl}-1H-indole], 0.05 to 0.5 µM. `Cc1cc(OCc2coc(-c3cc4ccc(F)cc4[nH]3)n2)ccc1CCCCn1ccnn1` [Example 8, 6-Fluoro-2-{4-[3-methyl-4-(4-[1,2,3]triazol-1-yl-butyl)-phenoxymethyl]-oxazol-2-yl}-1H-indole]: the IC50 was in the range of 0.0001 to 0.05 µM. Molecule `Fc1cc(NCc2coc(-c3cc4cc(Cl)ccc4[nH]3)n2)ccc1CCCCn1ccnn1` [Example 33, [2-(5-Chloro-1H-indol-2-yl)-oxazol-4-ylmethyl]-[3-fluoro-4-(4-[1,2,3]triazol-1-yl-butyl)-phenyl]-amine] gave an IC50 of 0.0001 to 0.05 µM. With `FC(F)(F)Oc1ccc2[nH]c(-c3nc(COc4ccc(CCCCn5ccnn5)cc4)co3)cc2c1` [Example 1, 2-{4-[4-(4-[1,2,3]Triazol-1-yl-butyl)-phenoxymethyl]-oxazol-2-yl}-5-trifluoromethoxy-1H-indole] the figure was 0.0001 to 0.05 µM; with `FC(F)(F)Oc1ccc2[nH]c(-c3nc(COc4cccc(CCCn5ccnn5)c4)co3)cc2c1` [Example 14, 2-{4-[3-(3-[1,2,3]Triazol-1-yl-propyl)-phenoxymethyl]-oxazol-2-yl}-5-trifluoromethoxy-1H-indole], 0.5 to 1 µM.

Take `[O-][S+](CCn1ccnn1)Cc1ccc(OCc2coc(-c3cc4cc(Cl)ccc4[nH]3)n2)cc1` (stereo not drawn) [Example 12, 5-Chloro-2-{4-[4-(2-[1,2,3]triazol-1-yl-ethanesulfinylmethyl)-phenoxymethyl]-oxazol-2-yl}-1H-indole]: the IC50 is 0.5 to 1 µM. Regarding `Fc1cc(CCCCn2ccnn2)ccc1NCc1coc(-c2cc3cc(Cl)ccc3[nH]2)n1` [Example 35, [2-(5-Chloro-1H-indol-2-yl)-oxazol-4-ylmethyl]-[2-fluoro-4-(4-[1,2,3]triazol-1-yl-butyl)-phenyl]-amine], the 50% inhibitory concentration (IC50) fell in the range of 0.05 to 0.5 µM. For `Fc1ccc2cc(-c3nc(CNc4ccc(CCCCn5ccnn5)cc4)co3)[nH]c2c1` [Example 23, [2-(6-Fluoro-1H-indol-2-yl)-oxazol-4-ylmethyl]-[4-(4-[1,2,3]triazol-1-yl-butyl)-phenyl]-amine] the value was 0.0001 to 0.05 µM; for `FC(F)(F)Oc1ccc2[nH]c(-c3nc(CNc4ccc(CCCCn5ccnn5)cc4)co3)cc2c1` [Example 22, [4-(4-[1,2,3]Triazol-1-yl-butyl)-phenyl]-[2-(5-trifluoromethoxy-1H-indol-2-yl)-oxazol-4-ylmethyl]-amine], 0.05 to 0.5 µM; for `Cc1cc(OCc2coc(-c3cc4cc(F)ccc4[nH]3)n2)ccc1COCCn1ccnn1` [Example 40, 5-Fluoro-2-{4-[3-methyl-4-(2-[1,2,3]triazol-1-yl-ethoxymethyl)-phenoxymethyl]-oxazol-2-yl}-1H-indole], 0.0001 to 0.05 µM.
